Measured values as given in the CheMixHub viscosity set.
± gives the uncertainty stated by the source.

Assay: xn = mol fraction of the nth substance listed

OCCO + CN(C)C=O showed a viscosity (293.15 K, 101 kPa, x2 = 0.0864) of 16.12 ± 0.41 mPa·s, a viscosity (293.15 K, 101 kPa, x2 = 0.1758) of 11.93 ± 0.3 mPa·s and a viscosity (293.15 K, 101 kPa, x2 = 0.3623) of 6.277 ± 0.16 mPa·s. It also gave a viscosity (293.15 K, 101 kPa, x2 = 0.5609) of 3.23 ± 0.083 mPa·s, a viscosity (293.15 K, 101 kPa, x2 = 0.7734) of 1.66 ± 0.043 mPa·s and a viscosity (293.15 K, 101 kPa, x2 = 0.8848) of 1.191 ± 0.031 mPa·s. For the same compound, the viscosity (298.15 K, 100 kPa, x1 = 0.1049) was 1.27 ± 0.6 mPa·s, the viscosity (298.15 K, 100 kPa, x1 = 0.2019) was 1.64 ± 0.6 mPa·s and the viscosity (298.15 K, 100 kPa, x1 = 0.3063) was 2.27 ± 0.6 mPa·s. It also gave a viscosity (298.15 K, 100 kPa, x1 = 0.3993) of 2.9 ± 0.6 mPa·s, a viscosity (298.15 K, 100 kPa, x1 = 0.4986) of 3.95 ± 0.6 mPa·s and a viscosity (298.15 K, 100 kPa, x1 = 0.6048) of 5.35 ± 0.6 mPa·s. The viscosity (298.15 K, 100 kPa, x1 = 0.7069) was 7.24 ± 0.6 mPa·s, the viscosity (298.15 K, 100 kPa, x1 = 0.8032) was 9.44 ± 0.61 mPa·s and the viscosity (298.15 K, 100 kPa, x1 = 0.9054) was 12.85 ± 0.61 mPa·s. The viscosity (298.15 K, 101 kPa, x1 = 0.5408) was 3.065 ± 0.023 mPa·s, the viscosity (298.15 K, 101 kPa, x2 = 0.0864) was 13.24 ± 0.34 mPa·s and the viscosity (298.15 K, 101 kPa, x2 = 0.1758) was 9.921 ± 0.25 mPa·s. It also gave a viscosity (298.15 K, 101 kPa, x2 = 0.3623) of 5.381 ± 0.14 mPa·s, a viscosity (298.15 K, 101 kPa, x2 = 0.5609) of 2.852 ± 0.073 mPa·s and a viscosity (298.15 K, 101 kPa, x2 = 0.7734) of 1.518 ± 0.039 mPa·s. The viscosity (298.15 K, 101 kPa, x2 = 0.8848) was 1.105 ± 0.029 mPa·s, the viscosity (303.15 K, 100 kPa, x1 = 0.1049) was 1.23 ± 0.6 mPa·s and the viscosity (303.15 K, 100 kPa, x1 = 0.2019) was 1.52 ± 0.6 mPa·s. For the same compound, the viscosity (303.15 K, 100 kPa, x1 = 0.3063) was 2.03 ± 0.6 mPa·s, the viscosity (303.15 K, 100 kPa, x1 = 0.3993) was 2.63 ± 0.6 mPa·s and the viscosity (303.15 K, 100 kPa, x1 = 0.4986) was 3.6 ± 0.6 mPa·s. For the same compound, the viscosity (303.15 K, 100 kPa, x1 = 0.6048) was 4.53 ± 0.6 mPa·s, the viscosity (303.15 K, 100 kPa, x1 = 0.7069) was 6.12 ± 0.6 mPa·s and the viscosity (303.15 K, 100 kPa, x1 = 0.8032) was 7.92 ± 0.6 mPa·s. The viscosity (303.15 K, 100 kPa, x1 = 0.9054) was 10.48 ± 0.61 mPa·s, the viscosity (303.15 K, 101 kPa, x2 = 0.0864) was 10.91 ± 0.28 mPa·s and the viscosity (303.15 K, 101 kPa, x2 = 0.1758) was 8.25 ± 0.21 mPa·s. The viscosity (303.15 K, 101 kPa, x2 = 0.3623) was 4.639 ± 0.12 mPa·s, the viscosity (303.15 K, 101 kPa, x2 = 0.5609) was 2.551 ± 0.065 mPa·s and the viscosity (303.15 K, 101 kPa, x2 = 0.7734) was 1.392 ± 0.036 mPa·s. For the same compound, the viscosity (303.15 K, 101 kPa, x2 = 0.8848) was 1.027 ± 0.027 mPa·s, the viscosity (308.15 K, 100 kPa, x1 = 0.1049) was 1.15 mPa·s and the viscosity (308.15 K, 100 kPa, x1 = 0.2019) was 1.4 ± 0.6 mPa·s. For the same compound, the viscosity (308.15 K, 100 kPa, x1 = 0.3063) was 1.81 ± 0.6 mPa·s, the viscosity (308.15 K, 100 kPa, x1 = 0.3993) was 2.41 ± 0.6 mPa·s and the viscosity (308.15 K, 100 kPa, x1 = 0.4986) was 3.16 ± 0.6 mPa·s. It also gave a viscosity (308.15 K, 100 kPa, x1 = 0.6048) of 4.05 ± 0.6 mPa·s, a viscosity (308.15 K, 100 kPa, x1 = 0.7069) of 5.18 ± 0.6 mPa·s and a viscosity (308.15 K, 100 kPa, x1 = 0.8032) of 6.83 ± 0.6 mPa·s. The viscosity (308.15 K, 100 kPa, x1 = 0.9054) was 8.79 ± 0.6 mPa·s, the viscosity (308.15 K, 101 kPa, x1 = 0.0257) was 0.758 ± 0.039 mPa·s and the viscosity (308.15 K, 101 kPa, x1 = 0.0458) was 0.816 ± 0.041 mPa·s. For the same compound, the viscosity (308.15 K, 101 kPa, x1 = 0.0974) was 0.872 ± 0.044 mPa·s, the viscosity (308.15 K, 101 kPa, x1 = 0.1399) was 0.956 ± 0.095 mPa·s and the viscosity (308.15 K, 101 kPa, x1 = 0.1921) was 1.151 ± 0.056 mPa·s. The viscosity (308.15 K, 101 kPa, x1 = 0.2568) was 1.132 ± 0.11 mPa·s, the viscosity (308.15 K, 101 kPa, x1 = 0.2919) was 1.453 ± 0.069 mPa·s and the viscosity (308.15 K, 101 kPa, x1 = 0.3715) was 1.288 ± 0.12 mPa·s. The viscosity (308.15 K, 101 kPa, x1 = 0.3822) was 1.814 ± 0.084 mPa·s, the viscosity (308.15 K, 101 kPa, x1 = 0.4762) was 1.898 ± 0.18 mPa·s and the viscosity (308.15 K, 101 kPa, x1 = 0.4917) was 2.392 ± 0.11 mPa·s. For the same compound, the viscosity (308.15 K, 101 kPa, x1 = 0.5807) was 2.801 ± 0.25 mPa·s and the viscosity (308.15 K, 101 kPa, x1 = 0.5882) was 3.131 ± 0.14 mPa·s.
